The target in test [1] is T1, hNav1.7 (Homo sapiens (Human), UniProt Q15858). As to the kind of experiment: Tritiated compound binding to membranes from cells expressing hNav1.7 and the β1 subunit, modified protocol (LBA, Ex. 243B). To be noted: 300 pM [3H]compound, room temperature, read-out: Nav1.7 LBA (Ex. 243B) IC50.
Target sequence in this assay (Q15858 whole entry, looked up): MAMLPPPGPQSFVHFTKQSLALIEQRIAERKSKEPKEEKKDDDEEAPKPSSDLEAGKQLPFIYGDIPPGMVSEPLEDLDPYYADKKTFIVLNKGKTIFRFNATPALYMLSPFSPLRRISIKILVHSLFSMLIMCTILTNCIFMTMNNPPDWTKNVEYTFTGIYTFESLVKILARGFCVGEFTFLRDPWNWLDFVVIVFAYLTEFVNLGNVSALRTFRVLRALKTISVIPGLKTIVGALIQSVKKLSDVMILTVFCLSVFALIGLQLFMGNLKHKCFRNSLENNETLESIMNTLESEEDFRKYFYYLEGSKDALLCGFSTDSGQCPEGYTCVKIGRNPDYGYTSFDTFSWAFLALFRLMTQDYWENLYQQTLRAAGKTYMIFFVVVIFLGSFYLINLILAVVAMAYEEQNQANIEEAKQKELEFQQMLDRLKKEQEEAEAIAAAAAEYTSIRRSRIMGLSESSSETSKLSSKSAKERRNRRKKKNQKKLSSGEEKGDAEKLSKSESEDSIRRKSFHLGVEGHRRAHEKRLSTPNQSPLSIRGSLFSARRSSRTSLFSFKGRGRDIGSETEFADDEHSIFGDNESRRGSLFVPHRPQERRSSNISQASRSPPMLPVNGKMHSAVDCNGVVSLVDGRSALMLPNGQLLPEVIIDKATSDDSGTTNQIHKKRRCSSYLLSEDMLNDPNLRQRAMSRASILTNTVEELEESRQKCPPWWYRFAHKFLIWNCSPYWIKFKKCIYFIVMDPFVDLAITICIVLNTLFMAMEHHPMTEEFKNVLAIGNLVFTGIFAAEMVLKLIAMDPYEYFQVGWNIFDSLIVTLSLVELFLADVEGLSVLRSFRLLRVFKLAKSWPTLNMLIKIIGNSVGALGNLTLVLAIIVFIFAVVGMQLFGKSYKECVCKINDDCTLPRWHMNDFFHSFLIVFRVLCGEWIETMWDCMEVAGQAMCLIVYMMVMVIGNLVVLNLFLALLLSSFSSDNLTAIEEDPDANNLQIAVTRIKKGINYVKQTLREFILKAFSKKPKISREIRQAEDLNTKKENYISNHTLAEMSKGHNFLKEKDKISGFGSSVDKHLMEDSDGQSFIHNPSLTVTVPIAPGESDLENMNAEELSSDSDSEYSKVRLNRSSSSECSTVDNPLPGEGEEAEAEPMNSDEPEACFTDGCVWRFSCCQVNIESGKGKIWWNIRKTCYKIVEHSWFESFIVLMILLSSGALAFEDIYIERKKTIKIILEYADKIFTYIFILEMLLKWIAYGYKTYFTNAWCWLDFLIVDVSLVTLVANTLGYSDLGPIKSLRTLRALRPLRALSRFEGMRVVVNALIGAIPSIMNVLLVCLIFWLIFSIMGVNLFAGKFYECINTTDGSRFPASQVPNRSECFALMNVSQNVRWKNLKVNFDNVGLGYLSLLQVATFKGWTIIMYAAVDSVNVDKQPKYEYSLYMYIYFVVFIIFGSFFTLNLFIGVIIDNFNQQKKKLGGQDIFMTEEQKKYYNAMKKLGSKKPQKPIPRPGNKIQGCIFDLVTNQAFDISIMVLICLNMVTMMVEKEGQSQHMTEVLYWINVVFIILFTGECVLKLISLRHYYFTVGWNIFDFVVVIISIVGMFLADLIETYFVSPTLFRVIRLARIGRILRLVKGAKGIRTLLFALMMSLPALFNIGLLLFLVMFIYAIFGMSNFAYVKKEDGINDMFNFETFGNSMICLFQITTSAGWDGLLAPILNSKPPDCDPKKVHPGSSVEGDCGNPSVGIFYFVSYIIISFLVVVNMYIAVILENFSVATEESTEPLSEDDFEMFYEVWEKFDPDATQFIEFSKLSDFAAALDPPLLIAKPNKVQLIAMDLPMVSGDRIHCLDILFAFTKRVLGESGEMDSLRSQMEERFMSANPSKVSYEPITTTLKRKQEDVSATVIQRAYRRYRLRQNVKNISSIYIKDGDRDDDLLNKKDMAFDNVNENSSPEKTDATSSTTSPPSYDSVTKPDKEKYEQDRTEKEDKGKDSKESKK
Target sequence in this assay (Q07699 whole entry partner, looked up): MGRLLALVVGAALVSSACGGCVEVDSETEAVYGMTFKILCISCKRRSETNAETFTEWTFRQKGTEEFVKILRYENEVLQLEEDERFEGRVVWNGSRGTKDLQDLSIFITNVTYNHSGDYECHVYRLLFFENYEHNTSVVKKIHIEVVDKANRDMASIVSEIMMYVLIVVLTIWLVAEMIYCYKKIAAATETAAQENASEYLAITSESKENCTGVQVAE
Test [2] deals with T1, hNav1.7. As to the kind of experiment: Patch voltage clamp electrophysiology assay (EP), Syncropatch 384PE, CHO cells expressing Nav1.7. As to conditions: holding potential -50 mV; […] compound incubation; read-out: EP_SP hNav1.7 (Ex. 243B) IC50. It counts as cell-based. In a few lines: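 Automated whole-cell patch clamp on CHO cells stably expressing human Nav1.7, CsCl/EGTA internal and NMDG/80 mM Na+ external (pH 7.4). From −50 mV holding, −10 mV step, 20 ms recovery at −150 mV, then second −10 mV pulse where block is measured; inhibition after 7.5 min compound incubation.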
Target sequence in this assay (Q15858 other isoform, or with tags, fused parts or gaps): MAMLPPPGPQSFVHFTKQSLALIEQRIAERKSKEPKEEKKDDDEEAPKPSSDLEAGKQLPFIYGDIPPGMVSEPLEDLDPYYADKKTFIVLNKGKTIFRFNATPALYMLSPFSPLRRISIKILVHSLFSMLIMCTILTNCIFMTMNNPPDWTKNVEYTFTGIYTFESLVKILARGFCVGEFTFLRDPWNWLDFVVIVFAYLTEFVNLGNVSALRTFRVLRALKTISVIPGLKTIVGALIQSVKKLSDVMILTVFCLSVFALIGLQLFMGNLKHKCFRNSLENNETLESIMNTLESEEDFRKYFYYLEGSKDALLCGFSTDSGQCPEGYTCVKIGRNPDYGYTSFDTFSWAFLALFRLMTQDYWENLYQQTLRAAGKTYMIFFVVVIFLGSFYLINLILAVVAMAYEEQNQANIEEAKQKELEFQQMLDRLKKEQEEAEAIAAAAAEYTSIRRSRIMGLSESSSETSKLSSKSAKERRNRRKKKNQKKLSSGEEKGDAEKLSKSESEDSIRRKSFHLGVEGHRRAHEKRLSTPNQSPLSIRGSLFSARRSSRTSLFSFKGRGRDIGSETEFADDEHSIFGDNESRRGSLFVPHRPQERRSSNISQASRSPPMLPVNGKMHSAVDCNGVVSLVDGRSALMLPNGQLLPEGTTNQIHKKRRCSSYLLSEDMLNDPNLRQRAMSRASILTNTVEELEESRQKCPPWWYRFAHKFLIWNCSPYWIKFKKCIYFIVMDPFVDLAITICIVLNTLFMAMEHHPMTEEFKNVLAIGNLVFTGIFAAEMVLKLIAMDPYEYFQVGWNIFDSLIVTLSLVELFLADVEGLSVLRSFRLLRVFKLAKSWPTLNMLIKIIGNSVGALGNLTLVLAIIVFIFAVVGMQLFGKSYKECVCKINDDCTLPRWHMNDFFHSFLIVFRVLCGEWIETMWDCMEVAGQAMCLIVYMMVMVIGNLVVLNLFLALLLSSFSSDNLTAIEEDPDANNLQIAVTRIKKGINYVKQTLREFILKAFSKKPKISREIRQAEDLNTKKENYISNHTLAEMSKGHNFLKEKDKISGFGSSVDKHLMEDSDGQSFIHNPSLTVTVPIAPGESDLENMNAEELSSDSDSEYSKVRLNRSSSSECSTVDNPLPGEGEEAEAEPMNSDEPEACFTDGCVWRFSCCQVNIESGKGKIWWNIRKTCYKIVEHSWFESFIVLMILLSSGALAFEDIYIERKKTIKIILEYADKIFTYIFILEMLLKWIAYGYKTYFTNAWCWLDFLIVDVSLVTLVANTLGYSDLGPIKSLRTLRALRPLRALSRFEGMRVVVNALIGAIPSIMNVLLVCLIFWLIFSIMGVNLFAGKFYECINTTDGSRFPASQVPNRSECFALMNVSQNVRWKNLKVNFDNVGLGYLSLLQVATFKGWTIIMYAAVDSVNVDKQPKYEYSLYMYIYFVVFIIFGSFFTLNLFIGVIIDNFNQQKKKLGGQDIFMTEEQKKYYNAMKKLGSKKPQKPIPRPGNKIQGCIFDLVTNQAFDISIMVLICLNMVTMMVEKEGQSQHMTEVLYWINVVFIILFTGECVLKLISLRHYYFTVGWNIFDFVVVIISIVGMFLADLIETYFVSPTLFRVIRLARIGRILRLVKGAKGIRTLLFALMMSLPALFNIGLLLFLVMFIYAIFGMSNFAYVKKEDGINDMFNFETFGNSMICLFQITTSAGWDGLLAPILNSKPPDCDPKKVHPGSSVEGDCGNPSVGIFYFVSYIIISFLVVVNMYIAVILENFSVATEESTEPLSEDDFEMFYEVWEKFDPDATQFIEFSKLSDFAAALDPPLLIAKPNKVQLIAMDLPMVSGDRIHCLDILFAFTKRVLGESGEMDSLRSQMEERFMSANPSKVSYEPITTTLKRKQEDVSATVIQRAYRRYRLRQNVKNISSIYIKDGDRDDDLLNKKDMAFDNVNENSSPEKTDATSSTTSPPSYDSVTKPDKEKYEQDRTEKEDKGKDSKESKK
A general note: The patch-clamp technique gives a direct electrical read-out from membranes.

In general, IC50 refers to the midpoint of a concentration-inhibition curve.

Counter-ions that a name gives are not always drawn.

`CN([C@H]1C[C@H](O)C1)[C@H]1CCCC[C@@H]1Nc1cc(F)c(S(=O)(=O)Nc2nccs2)cc1Cl` [Example 157, 5-Chloro-2-fluoro-4-(((1S,2S)-2-((trans-3-hydroxycyclobutyl)(methyl)amino)cyclohexyl)amino)-N-(thiazol-2-yl)benzenesulfonamide formate]: the IC50 at hNav1.7 [1] was 337 nM; at hNav1.7 [2], 24.1 nM.
With `CN(C1CCC1)[C@H]1C[C@@H](C(F)(F)F)CC[C@@H]1Nc1cc(F)c(S(=O)(=O)Nc2ccncn2)cc1Cl` [Example 180, 5-chloro-4-(((1S,2S,4S)-2-(cyclobutyl(methyl)amino)-4-(trifluoromethyl)cyclohexyl)amino)-2-fluoro-N-(pyrimidin-4-yl)benzenesulfonamide], the IC50 is 666 nM on hNav1.7 [1] and 49.5 nM at hNav1.7 [2].
Consider `CN(C)[C@H]1C[C@H](c2cccc(C(F)(F)F)c2)CC[C@@H]1Nc1cc(F)c(S(=O)(=O)Nc2ccncn2)cc1Cl` [Example 218, 5-chloro-4-(((1S,2S,4R)-2-(dimethylamino)-4-(3-(trifluoromethyl)phenyl)-cyclohexyl)amino)-2-fluoro-N-(pyrimidin-4-yl)benzenesulfonamide], for which the IC50 is 20.9 nM at hNav1.7 [1] and 1.6 nM on hNav1.7 [2].
On the same counts, the results for `O=S(=O)(Nc1ccncn1)c1cc(Cl)c(N[C@H]2CCCC[C@@H]2N2CCCCC2)cc1F` [Example 108, 5-chloro-2-fluoro-4-(((1S,2S)-2-(piperidin-1-yl)cyclohexyl)amino)-N-(pyrimidin-4-yl)benzenesulfonamide] are 166 nM and 22.6 nM.
Taken in the same sequence, the figures for `N#CC1CCN([C@H]2CCCC[C@@H]2Nc2cc(F)c(S(=O)(=O)Nc3nccs3)cc2Cl)CC1` [Example 149, 5-Chloro-4-(((1S,2S)-2-(4-cyanopiperidin-1-yl)cyclohexyl)amino)-2-fluoro-N-(thiazol-2-yl)benzenesulfonamide formate] were 520 nM and 12.5 nM.
On the same counts, the results for `CN1CC[C@H](C(=O)N(C)[C@H]2CCCC[C@@H]2Nc2cc(F)c(S(=O)(=O)Nc3nccs3)cc2Cl)C1` [Example 199, (S)—N-((1S,2S)-2-((2-chloro-5-fluoro-4-(N-(thiazol-2-yl)sufamoyl)phenyl)amino)cyclohexyl)-N,1-dimethylpyrrolidine-3-carboxamide] are 131 nM and 18.7 nM.
As to `O=S(=O)(Nc1nccs1)c1cc(Cl)c(N[C@H]2CCCC[C@@H]2N2CCC(O)CC2)cc1F` [Example 131, 5-chloro-2-fluoro-4-(((1 S,2S)-2-(4-hydroxypiperidin-1-yl)cyclohexyl)amino)-N-(thiazol-2-yl)benzenesulfonamide], the values for the IC50 at hNav1.7 [1] and on hNav1.7 [2] were 201 nM and 5.95 nM, respectively.
Take `CN(C)[C@H]1C[C@@H](C(F)(F)F)CC[C@@H]1Nc1cc(F)c(S(=O)(=O)Nc2ccncn2)cc1Cl` [Example 112, 5-chloro-4-(((1S,2S,4S)-2-(dimethylamino)-4-(trifluoromethyl)cyclohexyl)amino)-2-fluoro-N-(pyrimidin-4-yl)benzenesulfonamide]: the IC50 on hNav1.7 [1] was 229 nM; on hNav1.7 [2], 15.1 nM.
For the compound `CN(C)[C@H]1Cc2ccccc2C[C@@H]1Nc1cc(F)c(S(=O)(=O)Nc2nccs2)cc1Cl` [Example 165, 5-Chloro-4-(((2S,3S)-3-(dimethylamino)-1,2,3,4-tetrahydronaphthalen-2-yl)amino)-2-fluoro-N-(thiazol-2-yl)benzenesulfonamide], the IC50 on hNav1.7 [1] was 2000 nM; on hNav1.7 [2], 511 nM.
On the same counts, the results for `CN(CCO)[C@H]1C[C@@H](C(F)(F)F)CC[C@@H]1Nc1cc(F)c(S(=O)(=O)Nc2nccs2)cc1Cl` [Example 138, 5-chloro-2-fluoro-4-(((1S,2S,4S)-2-((2-hydroxyethyl)(methyl)amino)-4-(trifluoromethyl)cyclohexyl)amino)-N-(thiazol-2-yl)benzenesulfonamide] are 9.43 nM and 3.21 nM.
Taken in the same sequence, the figures for `CN1CC[C@@H]1C(=O)N(C)[C@H]1CCCC[C@@H]1Nc1cc(F)c(S(=O)(=O)Nc2nccs2)cc1Cl` [Example 205, (R)—N-((1S,2S)-2-((2-Chloro-5-fluoro-4-(N-(thiazol-2-yl)sulfamoyl)phenyl)amino)cyclohexyl)-N,1-dimethylazetidine-2-carboxamide] were 556 nM and 32.7 nM.
As to `O=S(=O)(Nc1nccs1)c1cc(Cl)c(N[C@H]2CCCC[C@@H]2N2CCC[C@H]2CO)cc1F` [Example 134, 5-chloro-2-fluoro-4-(((1S,2S)-2-((S)-2-(hydroxymethyl)pyrrolidin-1-yl)cyclohexyl)amino)-N-(thiazol-2-yl)benzenesulfonamide], the results for the IC50 on hNav1.7 [1] and at hNav1.7 [2] were 279 nM and 18.6 nM, respectively.
With `O=S(=O)(Nc1ccncn1)c1cc(Cl)c(N[C@H]2CC[C@H](C(F)(F)F)C[C@@H]2N2CCCCC2)cc1F` [Example 206, 5-chloro-2-fluoro-4-(((1S,2S,4S)-2-(piperidin-1-yl)-4-(trifluoromethyl)cyclohexyl)amino)-N-(pyrimidin-4-yl)benzenesulfonamide], the IC50 at hNav1.7 [1] came out at 41.1 nM; on hNav1.7 [2] it was 8.65 nM.
Taken in the same sequence, the figures for `CN(C)[C@H]1C[C@@H](F)CC[C@@H]1Nc1cc(F)c(S(=O)(=O)Nc2nccs2)cc1Cl` [Example 192, 5-chloro-4-(((1S,2S,4S)-2-(dimethylamino)-4-fluorocyclohexyl)amino)-2-fluoro-N-(thiazol-2-yl)benzenesulfonamide] were 324 nM and 25.5 nM.
Taken in the same sequence, the figures for `CN([C@H]1C[C@@H](O)C1)[C@H]1CCCC[C@@H]1Nc1cc(F)c(S(=O)(=O)Nc2nccs2)cc1Cl` [Example 156, 5-Chloro-2-fluoro-4-(((1S,2S)-2-((cis-3-hydroxycyclobutyl)(methyl)amino)cyclohexyl)amino)-N-(thiazol-2-yl)benzenesulfonamide formate] were 316 nM and 18.9 nM.
On the same counts, the results for `CN(C)[C@H]1C[C@@H](C(F)(F)F)CC[C@@H]1Nc1cc(F)c(S(=O)(=O)Nc2ccncn2)cc1C1CCC1` [Example 203, 5-cyclobutyl-4-(((1S,2S,4S)-2-(dimethylamino)-4-(trifluoromethyl)cyclohexyl)amino)-2-fluoro-N-(pyrimidin-4-yl)benzenesulfonamide] are 80.6 nM and 11.6 nM.
With `CN(C)[C@H]1C[C@@H](c2cccc(C(F)(F)F)c2)CC[C@@H]1Nc1cc(F)c(S(=O)(=O)Nc2ccncn2)cc1C1CCC1` [Example 236, 5-cyclobutyl-4-(((1S,2S,4S)-2-(dimethylamino)-4-(3-(trifluoromethyl)phenyl)cyclohexyl)amino)-2-fluoro-N-(pyrimidin-4-yl)benzenesulfonamide], the values for the IC50 at hNav1.7 [1] and on hNav1.7 [2] were 0.593 nM and 1.6 nM, respectively.
Take `CCN(C)[C@H]1CCCC[C@@H]1Nc1cc(F)c(S(=O)(=O)Nc2nc(C)cs2)cc1Cl` [Example 102, 5-chloro-4-(((1S,2S)-2-(ethyl(methyl)amino)cyclohexyl)amino)-2-fluoro-N-(4-methylthiazol-2-yl)benzenesulfonamide formate]: the IC50 at hNav1.7 [1] is 424 nM; at hNav1.7 [2], 66.5 nM.

Source of the values: patent US10457654B2 (GENENTECH, INC., priority 2017, dated 2019).
